Measurements published in ChEMBL document CHEMBL4196087 (Eur J Med Chem, 2018).
Values after ≈ are worked out from the molar mass of the structure shown.

Tests used:
MOLT-4 = experiment: Growth inhibition of human MOLT4 cells at 10^-5 M incubated for 48 hrs by sulforhodamine B assay relative to control; assay type: functional; settings: MOLT-4, 48 h, read-out: GI
HOP-62 = experiment: Growth inhibition of human HOP62 cells at 10^-5 M incubated for 48 hrs by sulforhodamine B assay relative to control; assay type: functional; settings: HOP-62, 48 h, read-out: GI
HOP-92 = experiment: Growth inhibition of human HOP92 cells at 10^-5 M incubated for 48 hrs by sulforhodamine B assay relative to control; assay type: functional; settings: HOP-92, 48 h, read-out: GI
LOX IMVI = experiment: Growth inhibition of human LOXIMVI cells at 10^-5 M incubated for 48 hrs by sulforhodamine B assay relative to control; assay type: functional; settings: read-out: GI
UO-31 = experiment: Growth inhibition of human UO31 cells at 10^-5 M incubated for 48 hrs by sulforhodamine B assay relative to control; assay type: functional; settings: UO-31, 48 h, read-out: GI
PC-3 = experiment: Growth inhibition of human PC3 cells at 10^-5 M incubated for 48 hrs by sulforhodamine B assay relative to control; assay type: functional; settings: PC-3, 48 h, read-out: GI
T47D = experiment: Growth inhibition of human T47D cells at 10^-5 M incubated for 48 hrs by sulforhodamine B assay relative to control; assay type: functional; settings: read-out: GI
SK-OV-3 = experiment: Growth inhibition of human SKOV3 cells at 10^-5 M incubated for 48 hrs by sulforhodamine B assay relative to control; assay type: functional; settings: SK-OV-3, 48 h, read-out: GI
Bacillus subtilis [1] = experiment: Antibacterial activity against Bacillus subtilis at 37 degC measured after 24 hrs by agar disc diffusion method; assay type: functional
Staphylococcus aureus = experiment: Antibacterial activity against Staphylococcus aureus at 37 degC measured after 24 hrs by agar disc diffusion method; assay type: functional
Escherichia coli = experiment: Antibacterial activity against Escherichia coli at 37 degC measured after 24 hrs by agar disc diffusion method; assay type: functional
Pseudomonas aeruginosa [2] = experiment: Antibacterial activity against Pseudomonas aeruginosa at 37 degC measured after 24 hrs by agar disc diffusion method; assay type: functional
CCRF-CEM = experiment: Growth inhibition of human CCRF-CEM cells at 10^-5 M incubated for 48 hrs by sulforhodamine B assay relative to control; assay type: functional; settings: read-out: GI
HL-60(TB) = experiment: Growth inhibition of human HL-60(TB) cells at 10^-5 M incubated for 48 hrs by sulforhodamine B assay relative to control; assay type: functional; settings: HL-60, 48 h, read-out: GI
K562 = experiment: Growth inhibition of human K562 cells at 10^-5 M incubated for 48 hrs by sulforhodamine B assay relative to control; assay type: functional; settings: K562, 48 h, read-out: GI
RPMI-8226 = experiment: Growth inhibition of human RPMI8226 cells at 10^-5 M incubated for 48 hrs by sulforhodamine B assay relative to control; assay type: functional; settings: RPMI-8226, 48 h, read-out: GI
NCI-H226 = experiment: Growth inhibition of human NCI-H226 cells at 10^-5 M incubated for 48 hrs by sulforhodamine B assay relative to control; assay type: functional; settings: NCI-H226, 48 h, read-out: GI
SF-539 = experiment: Growth inhibition of human SF539 cells at 10^-5 M incubated for 48 hrs by sulforhodamine B assay relative to control; assay type: functional; settings: SF-539, 48 h, read-out: GI
SNB-75 = experiment: Growth inhibition of human SNB75 cells at 10^-5 M incubated for 48 hrs by sulforhodamine B assay relative to control; assay type: functional; settings: SNB-75, 48 h, read-out: GI
SK-MEL-5 = experiment: Growth inhibition of human SK-MEL-5 cells at 10^-5 M incubated for 48 hrs by sulforhodamine B assay relative to control; assay type: functional; settings: SK-MEL-5, 48 h, read-out: GI
IGROV-1 = experiment: Growth inhibition of human IGROV1 cells at 10^-5 M incubated for 48 hrs by sulforhodamine B assay relative to control; assay type: functional; settings: IGROV-1, 48 h, read-out: GI
A498 = experiment: Growth inhibition of human A498 cells at 10^-5 M incubated for 48 hrs by sulforhodamine B assay relative to control; assay type: functional; settings: A498, 48 h, read-out: GI
MCF7 = experiment: Growth inhibition of human MCF7 cells at 10^-5 M incubated for 48 hrs by sulforhodamine B assay relative to control; assay type: functional; settings: MCF7, 48 h, read-out: GI
MDA-MB-231 = experiment: Growth inhibition of human MDA-MB-231 cells at 10^-5 M incubated for 48 hrs by sulforhodamine B assay relative to control; assay type: functional; settings: MDA-MB-231, 48 h, read-out: GI
MDA-MB-468 = experiment: Growth inhibition of human MDA-MB-468 cells at 10^-5 M incubated for 48 hrs by sulforhodamine B assay relative to control; assay type: functional; settings: MDA-MB-468, 48 h, read-out: GI
HL-60 [3] = experiment: Antiproliferative activity against human HL60 cells after 48 hrs by MTT assay; assay type: functional, cell-based; settings: HL-60, 48 h
HL-60 [4] = experiment: Potency index, ratio of doxorubicin IC50 to compound IC50 for antiproliferative activity against human HL60 cells; assay type: functional
HL-60 [5] = experiment: Antiproliferative activity against human HL60 cells after 48 hrs by SRB assay; assay type: functional; settings: HL-60, 48 h, read-out: LC50 (the source's name)
Bacillus subtilis [6] = experiment: Antibacterial activity against Bacillus subtilis at 37 degC measured after 24 hrs by CLSI M7-A4 protocol based method; assay type: functional
Pseudomonas aeruginosa [7] = experiment: Antibacterial activity against Pseudomonas aeruginosa at 37 degC measured after 24 hrs by CLSI M7-A4 protocol based method; assay type: functional

Row | SMILES | inhibition of growth at 10 µM (MOLT-4) | inhibition of growth at 10 µM (HOP-62) | inhibition of growth at 10 µM (HOP-92) | inhibition of growth at 10 µM (LOX IMVI) | inhibition of growth at 10 µM (UO-31) | inhibition of growth at 10 µM (PC-3) | inhibition of growth at 10 µM (T47D) | inhibition of growth at 10 µM (SK-OV-3) | diameter of the inhibition zone (DIZ) (Bacillus subtilis [1]) | diameter of the inhibition zone (DIZ) (Staphylococcus aureus) | diameter of the inhibition zone (DIZ) (Escherichia coli) | diameter of the inhibition zone (DIZ) (Pseudomonas aeruginosa [2]) | further results
1 | CSc1nnc(CN2CCN(c3cc4c(cc3F)c(=O)c(C(=O)O)cn4C3CC3)CC2)o1 | < 20% | < 20% | < 20% | < 20% | < 20% | 24.9% | 21.1% | < 20% |  |  |  |  | 
2 | O=C(O)c1cn(C2CC2)c2cc(N3CCN(Cc4nnc(S)o4)CC3)c(F)cc2c1=O | 23% | < 20% | < 20% | < 20% | < 20% | 23.4% | < 20% | < 20% | 29 mm | 24 mm | 25 mm | 27 mm | 
3 | O=C(CN1CCN(c2cc3c(cc2F)c(=O)c(C(=O)O)cn3C2CC2)CC1)N/N=C/c1c[nH]c2ccccc12 | 24.6% | < 20% | < 20% | < 20% | 28.3% | < 20% | < 20% |  | 37 mm | 31 mm | 31 mm | 33 mm | inhibition of growth at 10 µM (CCRF-CEM): 54.4%; inhibition of growth at 10 µM (HL-60(TB)): 43%; inhibition of growth at 10 µM (K562): < 20%; inhibition of growth at 10 µM (RPMI-8226): < 20%; inhibition of growth at 10 µM (NCI-H226): < 20%; inhibition of growth at 10 µM (SF-539): < 20%; inhibition of growth at 10 µM (SNB-75): < 20%; inhibition of growth at 10 µM (SK-MEL-5): < 20%; inhibition of growth at 10 µM (IGROV-1): < 20%; inhibition of growth at 10 µM (A498): < 20%; inhibition of growth at 10 µM (MCF7): 27.1%; inhibition of growth at 10 µM (MDA-MB-231): 20.9%; inhibition of growth at 10 µM (MDA-MB-468): < 20%; IC50 (HL-60 [3]): 1.55 µM; Ratio IC50 (HL-60 [4]): 5.7; CC50 (HL-60 [5]): 15.9 µM; MIC (Bacillus subtilis [6]): 58 µg/mL (≈ 109 µM); MIC (Pseudomonas aeruginosa [7]): 30 µg/mL (≈ 56.5 µM)
